Values of other authors in patent US20100104643A1, “PHARMACEUTICAL COMPOSITIONS” (ZYSIS LIMITED, priority 2007, published 2010).

Assays:
[1] = for dose-concentration relationship: plasma concentrations
[2] = trimipramine antidepressant treatment

SMILES	dose-concentration relationship [1]	upper limit of the therapeutic trough plasma concentrations [2] [mg/L]	bioavailability difference between poor and ultra-fast metabolizers ([1]; CYP2D6 genotypes) [fold]	mean systemic clearances, ultrarapid metabolizers of CYP2D6 substrates versus poor metabolizers ([1]; higher in ultrarapid than in poor metabolizers) [fold]	total oral clearance, low extreme ([1]; poor metabolizer group) [L/h]	difference in total oral clearance ([1]; poor versus ultrarapid CYP2D6 metabolizers)	total oral clearance, high extreme ([1]; ultrarapid metabolizer group) [L/h]
CNCC(C)CN1c2ccccc2CCc2ccccc21 (stereo not drawn) [desmethyltrimipramine]	deviation from linearity within the therapeutic dose range	0.38	–	–	–	–	–
CC(CN(C)C)CN1c2ccccc2CCc2ccccc21 (stereo not drawn) [trimipramine, 10,11-Dihydro-5-(3-dimethylamino-2-methylpropyl)-5H-dibenz(b,f) azepine]	linear dose-concentration relationship for doses up to 150 mg	0.24	6	2.5	3.5	about 15 fold	712.6
